ChEMBL document CHEMBL1268981, “2-Methyl-3-furanyl-4H-1,2,4-triazol-3-ylthioamides: a new class of selective orexin 2 antagonists” (Bioorg Med Chem Lett, 2010)
Activity calls are given as the source filed them. The calls are words filed in the database; no cut-off is given here.

What was measured:
[1] = biological target: T1, Orexin/Hypocretin receptor type 1 (Homo sapiens, UniProt O43613); assay: Antagonist activity against human orexin 1 receptor expressed in CHO cells assessed as effect in calcium mobilization by FLIPR assay; assay type: functional, cell-based
T1 sequence (O43613 whole entry): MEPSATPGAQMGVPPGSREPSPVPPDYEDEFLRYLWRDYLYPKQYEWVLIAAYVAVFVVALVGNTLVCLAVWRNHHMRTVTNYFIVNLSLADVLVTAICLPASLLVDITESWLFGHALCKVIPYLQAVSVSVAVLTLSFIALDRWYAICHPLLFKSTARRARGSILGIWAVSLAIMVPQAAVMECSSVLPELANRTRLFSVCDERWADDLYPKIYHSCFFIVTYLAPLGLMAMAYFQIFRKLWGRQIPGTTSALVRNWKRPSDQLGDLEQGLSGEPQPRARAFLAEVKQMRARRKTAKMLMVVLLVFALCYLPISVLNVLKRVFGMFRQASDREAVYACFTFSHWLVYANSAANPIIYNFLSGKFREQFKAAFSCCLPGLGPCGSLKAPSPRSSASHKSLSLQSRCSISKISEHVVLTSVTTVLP

Orexin receptor type 2 = biological target: T2, Orexin receptor type 2 (Homo sapiens, UniProt O43614); assay: Antagonist activity against human orexin 2 receptor expressed in CHO cells assessed as effect in calcium mobilization by FLIPR assay; assay type: functional, cell-based
T2 sequence (O43614 whole entry): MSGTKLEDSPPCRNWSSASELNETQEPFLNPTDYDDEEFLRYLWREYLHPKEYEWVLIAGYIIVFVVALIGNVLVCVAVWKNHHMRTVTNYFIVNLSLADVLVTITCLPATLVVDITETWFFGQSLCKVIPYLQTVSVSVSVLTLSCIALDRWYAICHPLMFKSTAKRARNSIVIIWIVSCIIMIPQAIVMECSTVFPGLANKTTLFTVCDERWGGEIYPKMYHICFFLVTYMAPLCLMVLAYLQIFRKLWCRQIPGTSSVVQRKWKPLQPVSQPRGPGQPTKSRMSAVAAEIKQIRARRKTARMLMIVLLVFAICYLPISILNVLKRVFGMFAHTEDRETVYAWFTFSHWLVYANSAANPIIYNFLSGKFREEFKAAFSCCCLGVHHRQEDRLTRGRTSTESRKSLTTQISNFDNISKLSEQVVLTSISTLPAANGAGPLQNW

[2] = biological target: T3, Orexin receptor type 2 (Rattus norvegicus) (UniProt P56719); assay: Antagonist activity against rat orexin 2 receptor expressed in RBL cells by [3H]inositol phosphate accumulation assay; assay type: functional, cell-based
T3 sequence (whole entry): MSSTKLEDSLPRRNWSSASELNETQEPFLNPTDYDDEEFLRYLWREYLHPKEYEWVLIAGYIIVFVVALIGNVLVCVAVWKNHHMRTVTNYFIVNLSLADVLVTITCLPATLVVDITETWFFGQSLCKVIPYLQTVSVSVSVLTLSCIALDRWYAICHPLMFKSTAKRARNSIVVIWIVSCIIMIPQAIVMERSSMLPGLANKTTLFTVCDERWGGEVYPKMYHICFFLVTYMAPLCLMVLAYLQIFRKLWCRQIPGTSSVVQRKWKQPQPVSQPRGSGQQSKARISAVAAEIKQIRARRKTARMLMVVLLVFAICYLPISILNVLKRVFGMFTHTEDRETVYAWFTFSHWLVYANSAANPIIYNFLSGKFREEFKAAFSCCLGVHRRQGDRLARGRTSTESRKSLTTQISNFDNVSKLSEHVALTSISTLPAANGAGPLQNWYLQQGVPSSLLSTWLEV

[3] = biological target: T4, Orexin/Hypocretin receptor type 1 (Rattus norvegicus) (UniProt P56718); assay: Antagonist activity against rat orexin 1 receptor expressed in RBL cells by [3H]inositol phosphate accumulation assay; assay type: functional, cell-based
T4 sequence (whole entry): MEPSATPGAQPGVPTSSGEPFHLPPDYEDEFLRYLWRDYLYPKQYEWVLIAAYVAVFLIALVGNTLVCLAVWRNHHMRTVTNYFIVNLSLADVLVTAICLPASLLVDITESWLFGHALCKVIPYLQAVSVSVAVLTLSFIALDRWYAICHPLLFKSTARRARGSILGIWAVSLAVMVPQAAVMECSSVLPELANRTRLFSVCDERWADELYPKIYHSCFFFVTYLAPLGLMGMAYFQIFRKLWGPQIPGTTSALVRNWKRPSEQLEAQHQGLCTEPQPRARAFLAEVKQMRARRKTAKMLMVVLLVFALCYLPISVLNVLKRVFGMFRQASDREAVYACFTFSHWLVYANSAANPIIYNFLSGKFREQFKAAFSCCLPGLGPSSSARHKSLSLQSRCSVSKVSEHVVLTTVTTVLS

Cytochrome P450 1A2 = biological target: T5, Cytochrome P450 1A2 (Homo sapiens, UniProt P05177); assay: Inhibition of CYP1A2 by CYPEX bactosome P450 inhibition assay; assay type: ADME
T5 sequence (P05177 whole entry): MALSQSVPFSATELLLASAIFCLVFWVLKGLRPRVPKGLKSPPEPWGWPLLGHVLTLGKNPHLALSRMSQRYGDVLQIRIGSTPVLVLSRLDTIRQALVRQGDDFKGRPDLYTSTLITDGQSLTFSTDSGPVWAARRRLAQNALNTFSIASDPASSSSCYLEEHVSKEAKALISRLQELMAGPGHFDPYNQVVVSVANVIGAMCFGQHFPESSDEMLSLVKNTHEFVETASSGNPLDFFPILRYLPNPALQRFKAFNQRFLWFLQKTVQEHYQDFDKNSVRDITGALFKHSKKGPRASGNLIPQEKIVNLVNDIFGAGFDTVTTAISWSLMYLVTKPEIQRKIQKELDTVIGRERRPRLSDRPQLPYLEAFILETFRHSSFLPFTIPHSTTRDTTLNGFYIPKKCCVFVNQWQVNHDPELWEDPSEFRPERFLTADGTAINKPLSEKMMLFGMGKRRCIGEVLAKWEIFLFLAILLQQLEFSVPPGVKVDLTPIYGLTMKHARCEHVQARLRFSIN

Cytochrome P450 2C9 = Cytochrome P450 2C9 (Homo sapiens, UniProt P11712); assay: Inhibition of CYP2C9 by CYPEX bactosome P450 inhibition assay; assay type: ADME
Cytochrome P450 2C19 = Cytochrome P450 2C19 (Homo sapiens, UniProt P33261); assay: Inhibition of CYP2C19 by CYPEX bactosome P450 inhibition assay; assay type: ADME
Cytochrome P450 2D6 = Cytochrome P450 2D6 (Homo sapiens, UniProt P10635); assay: Inhibition of CYP2D6 by CYPEX bactosome P450 inhibition assay; assay type: ADME
Cytochrome P450 3A4 [4] = biological target: T6, Cytochrome P450 3A4 (Homo sapiens, UniProt P08684); assay: Inhibition of CYP3A4 by CYPEX bactosome P450 inhibition assay; assay type: ADME
Cytochrome P450 3A4 [5] = biological target: T6, Cytochrome P450 3A4; assay: Inhibition of CYP3A4 using DEF substrate by CYPEX bactosome P450 inhibition assay; assay type: ADME

T6 sequence (P08684 whole entry): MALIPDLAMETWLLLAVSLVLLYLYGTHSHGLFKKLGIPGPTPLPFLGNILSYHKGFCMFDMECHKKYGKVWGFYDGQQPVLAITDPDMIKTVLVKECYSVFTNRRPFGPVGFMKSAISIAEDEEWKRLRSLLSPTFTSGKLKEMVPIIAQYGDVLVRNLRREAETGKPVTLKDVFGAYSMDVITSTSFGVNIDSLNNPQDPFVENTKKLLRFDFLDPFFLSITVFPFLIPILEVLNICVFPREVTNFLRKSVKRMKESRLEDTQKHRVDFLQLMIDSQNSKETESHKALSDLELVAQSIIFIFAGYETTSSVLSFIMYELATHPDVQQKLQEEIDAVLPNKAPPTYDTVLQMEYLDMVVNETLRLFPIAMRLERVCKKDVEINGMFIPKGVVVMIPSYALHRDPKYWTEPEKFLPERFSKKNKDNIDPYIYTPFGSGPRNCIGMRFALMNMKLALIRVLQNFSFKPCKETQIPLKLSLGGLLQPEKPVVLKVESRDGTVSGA
Chain of Cytochrome P450 2D6 (P10635 whole entry): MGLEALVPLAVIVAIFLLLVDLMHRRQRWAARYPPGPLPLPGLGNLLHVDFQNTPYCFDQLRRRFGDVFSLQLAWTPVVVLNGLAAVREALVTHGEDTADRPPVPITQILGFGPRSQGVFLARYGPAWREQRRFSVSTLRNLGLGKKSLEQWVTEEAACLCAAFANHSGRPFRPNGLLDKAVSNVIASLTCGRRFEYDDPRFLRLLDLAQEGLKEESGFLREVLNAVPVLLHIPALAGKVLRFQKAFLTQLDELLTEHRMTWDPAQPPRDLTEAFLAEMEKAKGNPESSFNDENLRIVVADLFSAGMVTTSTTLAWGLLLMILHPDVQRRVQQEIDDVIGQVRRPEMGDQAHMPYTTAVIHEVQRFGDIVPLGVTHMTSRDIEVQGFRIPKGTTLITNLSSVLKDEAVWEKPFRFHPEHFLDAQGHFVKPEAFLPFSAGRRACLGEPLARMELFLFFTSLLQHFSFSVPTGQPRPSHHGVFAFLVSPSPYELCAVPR
Chain of Cytochrome P450 2C9 (P11712 whole entry): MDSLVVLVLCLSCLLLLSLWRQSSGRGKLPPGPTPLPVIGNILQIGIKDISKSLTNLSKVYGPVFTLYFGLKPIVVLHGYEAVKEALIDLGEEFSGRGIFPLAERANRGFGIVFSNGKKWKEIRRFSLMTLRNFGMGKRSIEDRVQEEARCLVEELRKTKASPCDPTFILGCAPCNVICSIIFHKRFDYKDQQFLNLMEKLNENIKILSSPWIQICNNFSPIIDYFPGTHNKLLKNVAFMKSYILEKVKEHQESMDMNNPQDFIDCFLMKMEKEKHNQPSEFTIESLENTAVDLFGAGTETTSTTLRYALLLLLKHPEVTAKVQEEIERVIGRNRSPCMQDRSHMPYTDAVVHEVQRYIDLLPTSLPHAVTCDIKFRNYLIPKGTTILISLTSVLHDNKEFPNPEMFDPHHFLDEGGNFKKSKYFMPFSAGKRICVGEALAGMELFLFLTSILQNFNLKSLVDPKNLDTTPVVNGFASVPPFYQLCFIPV
Chain of Cytochrome P450 2C19 (P33261 whole entry): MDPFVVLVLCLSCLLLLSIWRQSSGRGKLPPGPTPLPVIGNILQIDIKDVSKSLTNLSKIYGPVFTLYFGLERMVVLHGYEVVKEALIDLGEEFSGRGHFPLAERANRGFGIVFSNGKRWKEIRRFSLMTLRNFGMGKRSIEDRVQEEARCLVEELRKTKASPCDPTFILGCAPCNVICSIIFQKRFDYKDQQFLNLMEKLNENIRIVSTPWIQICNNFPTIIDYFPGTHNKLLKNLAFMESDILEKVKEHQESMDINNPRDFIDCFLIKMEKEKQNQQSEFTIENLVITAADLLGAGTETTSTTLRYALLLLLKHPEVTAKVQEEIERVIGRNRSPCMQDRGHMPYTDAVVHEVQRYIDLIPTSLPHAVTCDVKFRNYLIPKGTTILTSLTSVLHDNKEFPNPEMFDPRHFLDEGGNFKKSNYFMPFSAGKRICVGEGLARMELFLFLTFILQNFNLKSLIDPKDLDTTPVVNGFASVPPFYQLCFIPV

SMILES | Ki [1] [nM] | Ki (Orexin receptor type 2) [nM] | also measured
Cc1occc1-c1nnc(SCC(=O)Nc2ccccc2)n1Cc1ccco1 | > 15800 | 1000 | 
Cc1ccc(NC(=O)CSc2nnc(-c3ccoc3C)n2Cc2ccco2)cc1C | 631 | 2.51 | 
Cc1occc1-c1nnc(SCC(=O)Nc2ccc(N(C)C)cc2)n1Cc1ccco1 | 794 | 158 | 
Cc1occc1-c1nnc(SCC(=O)Nc2cccc(Cl)c2)n1Cc1ccco1 | 2000 | 63.1 | 
Cc1occc1-c1nnc(SCC(N)=O)n1Cc1ccco1 | > 15800 | > 15800 | 
Cc1ccc(NC(=O)CSc2nnc(-c3ccoc3C)n2Cc2ccco2)cc1 | > 15800 | 39.8 | 
Cc1occc1-c1nnc(SCC(=O)NCCc2ccccc2)n1Cc1ccco1 | > 15800 | 1580 | 
Cc1cccc(NC(=O)CSc2nnc(-c3ccoc3C)n2Cc2ccco2)c1 | 2510 | 50.1 | 
Cc1occc1-c1nnc(SCC(=O)Nc2ccccc2F)n1Cc1ccco1 | > 15800 | 2000 | 
CCC(C)NC(=O)CSc1nnc(-c2ccoc2C)n1Cc1ccco1 (stereo not given) | > 15800 | > 15800 | 
COc1ccc(NC(=O)CSc2nnc(-c3ccoc3C)n2Cc2ccco2)cc1 | > 15800 | 200 | 
Cc1cc(C)cc(N(C(=O)CSc2nnc(-c3ccoc3C)n2Cc2ccco2)C2CNCCN2)c1 (stereo not given) | > 15800 | 631 | 
Cc1occc1-c1nnc(SCC(=O)Nc2cccc(-c3ccc4c(c3)OCO4)c2)n1Cc1ccco1 | > 15800 | 251 | 
Cc1ccc(NC(=O)CSc2nnc(-c3ccoc3C)n2Cc2ccco2)c(C)c1 | 1260 | 501 | 
COc1ccc(C)cc1NC(=O)CSc1nnc(-c2ccoc2C)n1Cc1ccco1 | 2510 | 15.8 | 
Cc1occc1-c1nnc(SCC(=O)Nc2ccc(Cl)cc2)n1Cc1ccco1 | 2000 | 100 | 
Cc1occc1-c1nnc(SCC(=O)NN2CCc3ccccc32)n1Cc1ccco1 | > 15800 | 1000 | 

SMILES | Ki [1] [nM] | Ki (Orexin receptor type 2) [nM] | also measured
Cc1ccccc1NC(=O)CSc1nnc(-c2ccoc2C)n1Cc1ccco1 | > 15800 | > 15800 | 
Cc1occc1-c1nnc(SCC(=O)Nc2cccc(F)c2)n1Cc1ccco1 | > 15800 | 501 | 
Cc1cccc(NC(=O)CSc2nnc(-c3ccoc3C)n2Cc2ccco2)c1C | > 15800 | > 15800 | 
Cc1csc(NC(=O)CSc2nnc(-c3ccoc3C)n2Cc2ccco2)n1 | > 15800 | 100 | 
Cc1occc1-c1nnc(SCC(=O)Nc2nccs2)n1Cc1ccco1 | > 15800 | 1000 | 
Cc1occc1-c1nnc(SCC(=O)Nc2ccc(F)c(Cl)c2)n1Cc1ccco1 | 1000 | 39.8 | 
Cc1cc(C)cc(N(C(=O)CSc2nnc(-c3ccoc3C)n2Cc2ccco2)c2cccnc2)c1 | > 15800 | 2000 | 
Cc1ccc(C)c(NC(=O)CSc2nnc(-c3ccoc3C)n2Cc2ccco2)c1 | > 15800 |  | 
Cc1cccc(C)c1NC(=O)CSc1nnc(-c2ccoc2C)n1Cc1ccco1 | > 15800 | > 15800 | 
Cc1nc(C(=O)N2CCCC[C@H]2CNC(=O)c2cccc3occc23)c(-c2ccc(F)cc2)s1 [SB-649868] | 0.316 | 0.398 | 
Cc1cc(C)cc(N(C(=O)CSc2nnc(-c3ccoc3C)n2Cc2ccco2)c2ccccn2)c1 | > 15800 | 398 | 
Cc1occc1-c1nnc(SCC(=O)Nc2ccc(F)cc2)n1Cc1ccco1 | > 15800 | 158 | 
CC(=O)c1ccc(NC(=O)CSc2nnc(-c3ccoc3C)n2Cc2ccco2)cc1 | 2510 | 31.6 | 
CC(=O)c1cccc(NC(=O)CSc2nnc(-c3ccoc3C)n2Cc2ccco2)c1 | 3160 | 316 | 
Cc1nnc(NC(=O)CSc2nnc(-c3ccoc3C)n2Cc2ccco2)s1 | > 15800 | 398 | 
Cc1cc(C)cc(NC(=O)CSc2nnc(-c3ccoc3C)n2Cc2ccco2)c1 | 794 | 1.58 | inhibition [2]: Active; inhibition [3]: Active; IC50 (Cytochrome P450 1A2): > 5000 nM; IC50 (Cytochrome P450 2C9): > 5000 nM; IC50 (Cytochrome P450 2C19): > 5000 nM; IC50 (Cytochrome P450 2D6): > 5000 nM; IC50 (Cytochrome P450 3A4 [4]): > 5000 nM; IC50 (Cytochrome P450 3A4 [5]): 2000 nM
COc1ccccc1NC(=O)CSc1nnc(-c2ccoc2C)n1Cc1ccco1 | > 15800 | 501 | 
